For the assay, the target named is T1, hBK1 receptor (Homo sapiens, UniProt P46663).
T1 construct: expressed in transfected cells; host or cells: CHO cells (membrane homogenate)
T1 sequence (P46663 1-353): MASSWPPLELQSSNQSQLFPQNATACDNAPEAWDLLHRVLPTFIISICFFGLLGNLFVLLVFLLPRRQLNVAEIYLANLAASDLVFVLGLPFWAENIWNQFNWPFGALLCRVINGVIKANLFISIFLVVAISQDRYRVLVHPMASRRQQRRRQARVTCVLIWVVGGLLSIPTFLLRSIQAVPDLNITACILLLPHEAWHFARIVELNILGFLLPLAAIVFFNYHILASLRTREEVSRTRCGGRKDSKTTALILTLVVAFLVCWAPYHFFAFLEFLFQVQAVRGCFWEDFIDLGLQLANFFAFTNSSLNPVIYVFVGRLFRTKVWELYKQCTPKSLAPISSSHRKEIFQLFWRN
Kind of assay: hBK1 receptor binding (radioligand displacement on CHO cell membranes). Particulars: membranes of CHO cells expressing the hBK1 receptor; 0.5 to 1.0 nM [3H]-kallidin (DesArg10, Leu9); 60 minutes at room temperature. As to the method:
Description of the Method of hBK1 Receptor Binding
CHO cells expressing the hBK1 receptor are cultivated in Dulbecco's modified medium. The medium from confluent cultures is removed and the cells are washed with PBS buffer, scraped off and isolated by centrifugation. The cells are then homogenized in suspension and the homogenate is centrifuged and resuspended. The protein content is determined and the membrane preparation obtained in this manner is then frozen at −80° C. After thawing, 200 μl of the homogenate (50 to 100 μg of proteins/assay) are incubated at room temperature with 0.5 to 1.0 nM of kallidin (DesArg10, Leu9), [3,4-prolyl-3,43H(N)] and increasing concentrations of the test substance in a total volume of 250 μl for 60 minutes. The incubation is terminated by rapid filtration through GF/B glass fibre filters which had been pretreated with polyethyleneimine (0.3%). The protein-bound radioactivity is measured in a TopCount NXT. Non-specific binding is defined as radioactivity bound in the presence of 1.0 μM of […]. The concentration/binding curve is analysed using a computer-assisted nonlinear curve fitting. The Ki which corresponds to the test substance is determined using the data obtained in this manner. […]
A general note: Displacement assays read how much labelled ligand stays bound in the presence of the test substance.

Results on two compounds are retold here after patent publication US20110077231A1, “COMPOUNDS” (BOEHRINGER INGELHEIM INTERNATIONAL GMBH, priority 2007, published 2011).

One may read the Ki as a measure of affinity in units of concentration, obtained from inhibition or displacement. Low readings indicate a stronger hold on the target, high ones a looser hold on the target.

Molecules are shown by their SMILES.

The compound `COc1cc(C)c(S(=O)(=O)N(C)CCOCC(=O)N(C)[C@H]2CC[C@H](OCCN(C)C)CC2)c(C)c1` [Example 1] returned a Ki of 53.6 nM.

`COc1cc(C)c(S(=O)(=O)N(C)CCOCC(=O)N(C)[C@H]2CC[C@H](OCCN3CCCC3)CC2)c(C)c1` [Example 2]: affinity was put at a Ki of 15 nM.
